Measurements published in PMC12839014, “Machine Learning-Based Virtual Screening for the Identification of Novel CDK-9 Inhibitors” (Biomolecules, 2025).
Read-outs that look alike come from different tables or passages of the source. One block for each compound: values may come before it.

How the values were obtained:
MDA-MB-231 cells = assay: Cell viability assay (SRB), MDA-MB-231; type: cell-based; settings: 72 h; for cell viability (antiproliferative effect): MDA-MB-231, single agent, SRB
Procedure: (§1) HeLa, MCF-7, and MDA-MB-231 cells were seeded in triplicate into 96-well plates at densities of 1500, 3500, and 3000 cells per well, respectively, and allowed to adhere for 24 h. After 72 h of incubation, cells were fixed with 10% (v/v) trichloroacetic acid (TCA) and subsequently stained with 0.4% (w/v) sulforhodamine B (SRB) dissolved in 1% (v/v) acetic acid. Cell viability was quantified and expressed as a percentage relative to untreated control cells, which were normalized to 100%. Data represent the mean ± standard deviation (SD) from three independent experiments (n = 3). Statistical significance was determined using one-way ANOVA or Student’s t-test, followed by appropriate multiple-comparison post hoc tests to evaluate differences between experimental groups.

MCF-7 cells = assay: Cell viability assay (SRB), MCF-7; type: cell-based; settings: 72 h; for cell viability (antiproliferative effect): MCF-7, single agent, SRB
Procedure: as §1

HeLa cells = assay: Cell viability assay (SRB), HeLa; type: cell-based; settings: 72 h; for cell viability (antiproliferative effect): single agent, SRB
Procedure: as §1

[1] = system: HeLa cells transfected with siCTR or siCDK9; assay: Cell viability in HeLa cells with siRNA-mediated CDK9 knockdown; type: cell-based; settings: 100 nM siCDK9 vs siCTR, 72 h treatment
Procedure: as §1
Consistently, when CDK9 is depleted, the overall impact of compound 1 is reduced.
Figure S2. HeLa cells were transfected with 100 nM of siCTR or siCDK9. After 24 hours of incubation, the cells were plated for the indicated treatment time points and incubated for an additional 24 hours, followed by treatment with the speciﬁed drug concentrations for another 72 hours. Results are presented as the mean ± SD from three independent experiments. *p< […], **p< 0.01, *** p < 0.001 and **** p < 0.0001.
(1 picture or pasted object on this page, not shown here)

[2] = system: γH2AX Ser139 foci in HeLa cells; assay: Immunofluorescence analysis of γ-H2AX foci; type: cell-based; settings: 1 h pretreatment with compound 1, then 2 h CPT, combination vs CPT alone
Procedure: (§2) HeLa cells were fixed in 4% paraformaldehyde and subsequently permeabilized with 0.2% Triton X-100. Blocking was performed with 1% bovine serum albumin (BSA) for 10 min at room temperature. Cells were then incubated for 1 h at RT with primary antibodies targeting: γH2AX Ser139 (1:200, ab2893, Abcam, Cambridge, UK) or pRPA32 S4/8 (1:200, A300-245A, Bethyl Laboratories, Montgomery, TX, USA). Corresponding secondary antibody conjugated with AlexaFluor 647 donkey anti-rabbit IgG (H + L) was applied. Samples were mounted using ProLong™ Gold Antifade Mountant with DAPI (Thermo Fisher Scientific). High-resolution immunofluorescence imaging was performed on a Zeiss LSM 900 Airyscan2 confocal microscope equipped with a Plan-Apochromat 63×/1.4 NA oil immersion objective. Image acquisition and processing utilized Zen 3.9 software Zeiss, Jena, Germany). Quantification of fluorescent foci per nucleus was conducted using Fiji (ImageJ) software, version 2.14.0/1.54f.
Figure S3. […] Thirty cells were evaluated per condition. Data are expressed as the mean ± standard deviation (SD) from three separate experiments. Statistical signiﬁcance was determined using Welch’s corrected Student’s t-test to account for potential variance diﬀerences between samples. **** p < 0.0001. […]

CDK9/cyclin T1 = biological target: T1, CDK9/cyclin T1 (Homo sapiens, UniProt P50750); assay: ADAPTA kinase assay (TR-FRET), CDK9 inhibition; type: biochemical; settings: for IC50: CDK9 inhibitory activity
T1 construct: purchased Thermo Fisher Scientific, Madison, WI, USA
T1 sequence (P50750 whole entry): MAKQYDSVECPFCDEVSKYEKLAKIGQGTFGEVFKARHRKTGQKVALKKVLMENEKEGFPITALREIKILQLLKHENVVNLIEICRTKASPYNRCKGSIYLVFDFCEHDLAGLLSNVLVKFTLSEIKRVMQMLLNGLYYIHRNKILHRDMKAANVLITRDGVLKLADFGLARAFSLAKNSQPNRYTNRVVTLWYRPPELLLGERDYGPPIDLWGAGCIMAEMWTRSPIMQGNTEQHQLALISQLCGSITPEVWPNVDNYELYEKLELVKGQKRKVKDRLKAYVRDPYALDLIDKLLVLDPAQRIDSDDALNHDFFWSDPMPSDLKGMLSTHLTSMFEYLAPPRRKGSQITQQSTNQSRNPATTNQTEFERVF
T1 sequence (O60563 whole entry partner): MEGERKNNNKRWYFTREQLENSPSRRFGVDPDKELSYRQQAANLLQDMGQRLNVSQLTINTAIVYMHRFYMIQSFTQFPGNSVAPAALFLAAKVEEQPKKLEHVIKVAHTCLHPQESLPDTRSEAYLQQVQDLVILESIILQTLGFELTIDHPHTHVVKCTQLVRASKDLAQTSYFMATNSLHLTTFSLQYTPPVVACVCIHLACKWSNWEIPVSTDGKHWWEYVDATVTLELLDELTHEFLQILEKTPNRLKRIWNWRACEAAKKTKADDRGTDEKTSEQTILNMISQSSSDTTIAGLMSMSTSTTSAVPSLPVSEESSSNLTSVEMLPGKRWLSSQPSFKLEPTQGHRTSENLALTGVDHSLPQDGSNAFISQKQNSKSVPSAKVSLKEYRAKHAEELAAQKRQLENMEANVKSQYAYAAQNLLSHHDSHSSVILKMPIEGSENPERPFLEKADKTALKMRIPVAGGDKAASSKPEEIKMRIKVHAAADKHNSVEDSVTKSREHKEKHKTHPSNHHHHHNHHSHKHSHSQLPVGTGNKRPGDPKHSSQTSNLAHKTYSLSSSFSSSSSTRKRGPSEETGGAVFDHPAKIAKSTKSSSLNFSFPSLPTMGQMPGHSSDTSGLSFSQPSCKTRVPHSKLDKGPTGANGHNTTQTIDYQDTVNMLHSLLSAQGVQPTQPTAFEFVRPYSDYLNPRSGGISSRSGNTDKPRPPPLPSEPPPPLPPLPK
Procedure: The inhibitory activity of the compounds identified by the VS was evaluated against CDK9/cyclin T1 using the fluorescence-based ADAPTA kinase assay (Thermo Fisher Scientific, Madison, WI, USA). The assay quantifies ADP generated during the kinase reaction through a competitive immunoassay employing a TR-FRET detection system. In the presence of an inhibitor, ADP formation by the kinase is reduced, leading to preservation of the antibody–tracer complex and a corresponding increase in the TR-FRET signal. Inhibitory potency was expressed as IC50 values, determined from logistic dose–response curves with 10 concentration points, each representing the average of two independent experiments.

[3] = system: pRPA32 S4/8 in HeLa cells; assay: Immunofluorescence analysis of pRPA32 S4/8 (HR activity); type: cell-based; settings: 1 h pretreatment with compound 1 or DMSO, then 2 h CPT
Procedure: as §2
Figure S4. A) HeLa cells were pre-treated with compound 1 (reported as Cmp 1) or DMSO for one hour, followed by incubation with CPT. Thirty cells per condition were analyzed from three independent experiments, with results reported as the standard deviation (SD). Statistical analysis was performed using Welch’s corrected Student’s t-test to account for heteroscedasticity in the data. […]

[4] = 10 concentration points, average of two independent experiments, read-out: Experimental IC50

Compound: CC[C@@]1(O)C(=O)OCc2c1cc1n(c2=O)Cc2cc3ccccc3nc2-1 [CPT, Camptothecin, reference compound]
- cell viability (antiproliferative effect) (MDA-MB-231 cells): detectable cytotoxic effect
- cell viability (antiproliferative effect) (MCF-7 cells): detectable cytotoxic effect
- cell viability (antiproliferative effect) (HeLa cells): detectable cytotoxic effect

Compound: COc1ccccc1-c1ccnc(NC2CC3CCC(C2)N3C)n1 (centres unmarked) [Compound 1]
- survival of CDK9-depleted cells vs control cells [1]: higher survival
- DNA damage response (γ-H2AX foci) [2]: stronger DNA damage response
- cell viability, combination with CPT (MDA-MB-231 cells; MDA-MB-231, CPT fixed 5 nM + compound 1 1.85–30 µM): additive interaction
- cell viability, combination with CPT (MDA-MB-231 cells; MDA-MB-231, compound 1 fixed 7.5 µM + CPT 1.25–20 nM): potentiated the cytotoxic activity of CPT
- cell viability (antiproliferative effect) (MDA-MB-231 cells): stronger antiproliferative activity
- IC50 (CDK9/cyclin T1; [4]): 3.51 µM
- IC50 (CDK9/cyclin T1; read-out: IC50): < 50 µM
- potency of compound 1 relative to compound 2 (CDK9/cyclin T1; in vitro enzymatic assays): five-fold
- cell viability, combination with CPT (MCF-7 cells; MCF-7, CPT fixed 5 nM + compound 1 1.85–30 µM): additive interaction
- cell viability, combination with CPT (MCF-7 cells; MCF-7, compound 1 fixed 7.5 µM + CPT 1.25–20 nM): potentiated the cytotoxic activity of CPT
- cell viability (antiproliferative effect) (MCF-7 cells): stronger antiproliferative activity
- cell viability, combination with CPT (HeLa cells; CPT fixed 5 nM + compound 1 1.85–30 µM): additive interaction
- cell viability, combination with CPT (HeLa cells; compound 1 fixed 7.5 µM + CPT 1.25–20 nM): potentiated the cytotoxic activity of CPT
- cell viability (antiproliferative effect) (HeLa cells): stronger antiproliferative activity
- pRPA32 S4/8 signal (HR activity) [3]: no significant changes in pRPA32 signal

- IC50 (CDK9/cyclin T1; [4]): 16.8 µM
- IC50 (CDK9/cyclin T1; read-out: IC50): < 50 µM
Compound: CCOC(=O)c1sc(NC(=S)Nc2c(C)n(C)n(-c3ccccc3)c2=O)c(C(=O)OCC)c1C [Compound 2]
- cell viability (antiproliferative effect) (MDA-MB-231 cells): less effective at comparable concentrations
- cell viability (antiproliferative effect) (MCF-7 cells): less effective at comparable concentrations
- cell viability (antiproliferative effect) (HeLa cells): less effective at comparable concentrations

- IC50 (CDK9/cyclin T1; [4]): 28.6 µM
- IC50 (CDK9/cyclin T1; read-out: IC50): < 50 µM
Compound: COc1ccc(F)cc1-c1cc(N2CCN(S(=O)(=O)Cc3ccccc3)CC2)ncn1 [Compound 3]

- IC50 (CDK9/cyclin T1; [4]): 67.2 µM
Compound: Cc1nn(-c2ccc(F)cc2)c2nc(CCC(C)C)nc(N3CCN(C(=O)C4CC4c4ccccc4)CC3)c12 (centres unmarked) [Compound 4]

- IC50 (CDK9/cyclin T1; [4]): 107 µM
Compound: COc1cc2c(c3oc(=O)c(CCC(=O)NC4C=CS(=O)(=O)C4)c(C)c13)CCC(C)(C)O2 (centres unmarked) [Compound 5]

- IC50 (CDK9/cyclin T1; [4]): 133 µM
Compound: O=S(=O)(N1CCCC1)N1CCN(c2ncnc3scc(-c4ccc(F)cc4)c23)CC1 [Compound 6]

- IC50 (CDK9/cyclin T1; [4]): > 133 µM
Compound: Cc1cc(N2CCC3(NC(=O)c4cccc(C(C)C)n4)CCCC23)nc(CO)n1 (centres unmarked) [Compound 8]

- IC50 (CDK9/cyclin T1; [4]): > 133 µM
Compound: Cn1nc(C(=O)N2CCC(c3cc(O)nc(N4CCCC4)n3)C2)c2ccccc21 (centres unmarked) [Compound 9]

- IC50 (CDK9/cyclin T1; [4]): > 133 µM
Compound: Cc1cc(NC2CCN(c3ncccc3F)C2)nc(C)n1 (centres unmarked) [Compound 10]

- IC50 (CDK9/cyclin T1; [4]): > 133 µM
Compound: COc1ccc(OC)c(-c2cc(C(=O)NCC3CCN(c4ncccn4)CC3)n(C)n2)c1 [Compound 11]

- IC50 (CDK9/cyclin T1; [4]): > 133 µM
Compound: Nc1c2c(-c3ccccc3Cl)nc(N3CCCC3)nc2nn1-c1ccc(F)cc1 [Compound 12]

- IC50 (CDK9/cyclin T1; [4]): > 133 µM
Compound: CCC(Sc1nc2sc(C(=O)N(C)C)c(C)c2c(=O)n1CCc1ccccc1)C(=O)NC1CCCCC1 (centres unmarked) [Compound 13]

- IC50 (CDK9/cyclin T1; [4]): > 133 µM
Compound: COC(=O)c1c(NC(=O)c2nn3c(C(F)(F)F)cc(-c4ccc(Br)cc4)nc3c2Cl)sc2c1CCCC2 [Compound 14]
